Assay [1] addresses ecNOS (Homo sapiens, UniProt P29474). The experiment in a line: NOS activity assay, ecNOS (L-[3H]citrulline formation). The class given is biochemical. The protocol:
(§1) Assay Protocol for NOS activity
(§2) NOS activity is measured as the formation of L-[2,3,4,5-^3 H]Citrullinefrom L-[2,3,4,5-^3 H]Arginine. The incubation buffer (100 μL) contained; 100 mM TES, pH 7.5, 5 μM FAD, 5 μM FMN, 10 μM BH4, 0.5 mM NADPH, 0.5 mM DTT, 0.5 mg/mL BSA, 2 mM CaCl2, 10 μg/mL calmodulin (bovine), 1 μM L-Arg, 0.2 μCi L-[2,3,4,5-^3 H]Arg, and the inhibitor in aqueous DMSO (max. 5%). The reaction is initiated by addition of enzyme. Incubations are performed at room temperature for 30 minutes and stopped by the addition of an equal volume of quenching buffer consisting of 200 mM sodium citrate, pH 2.2, 0.02% sodium azide. Reaction products are separated by passing through a cation exchange resin and quantitated as cpm by scintillation counting.

For assay [2], the target named is ncNOS (Homo sapiens, UniProt P29475). The experiment in a line: biochemical. Particulars: read-out: IC50 ncNOS.
The target of assay [3] is iNOS (Homo sapiens, UniProt P35228). Put plainly: NOS activity assay, iNOS (L-[3H]citrulline formation). The class given is biochemical. The protocol: as §1, §2

pIC50: −log10 of the molar value. Where a name gives a salt, the structure may show the parent alone. Read-outs that look alike come from different tables or passages of the source.

The record followed here is patent US5629322A, “Cyclic amidine analogs as inhibitors of nitric oxide synthase” (priority 1995, dated 1997).

Chain of ncNOS (P29475 whole entry): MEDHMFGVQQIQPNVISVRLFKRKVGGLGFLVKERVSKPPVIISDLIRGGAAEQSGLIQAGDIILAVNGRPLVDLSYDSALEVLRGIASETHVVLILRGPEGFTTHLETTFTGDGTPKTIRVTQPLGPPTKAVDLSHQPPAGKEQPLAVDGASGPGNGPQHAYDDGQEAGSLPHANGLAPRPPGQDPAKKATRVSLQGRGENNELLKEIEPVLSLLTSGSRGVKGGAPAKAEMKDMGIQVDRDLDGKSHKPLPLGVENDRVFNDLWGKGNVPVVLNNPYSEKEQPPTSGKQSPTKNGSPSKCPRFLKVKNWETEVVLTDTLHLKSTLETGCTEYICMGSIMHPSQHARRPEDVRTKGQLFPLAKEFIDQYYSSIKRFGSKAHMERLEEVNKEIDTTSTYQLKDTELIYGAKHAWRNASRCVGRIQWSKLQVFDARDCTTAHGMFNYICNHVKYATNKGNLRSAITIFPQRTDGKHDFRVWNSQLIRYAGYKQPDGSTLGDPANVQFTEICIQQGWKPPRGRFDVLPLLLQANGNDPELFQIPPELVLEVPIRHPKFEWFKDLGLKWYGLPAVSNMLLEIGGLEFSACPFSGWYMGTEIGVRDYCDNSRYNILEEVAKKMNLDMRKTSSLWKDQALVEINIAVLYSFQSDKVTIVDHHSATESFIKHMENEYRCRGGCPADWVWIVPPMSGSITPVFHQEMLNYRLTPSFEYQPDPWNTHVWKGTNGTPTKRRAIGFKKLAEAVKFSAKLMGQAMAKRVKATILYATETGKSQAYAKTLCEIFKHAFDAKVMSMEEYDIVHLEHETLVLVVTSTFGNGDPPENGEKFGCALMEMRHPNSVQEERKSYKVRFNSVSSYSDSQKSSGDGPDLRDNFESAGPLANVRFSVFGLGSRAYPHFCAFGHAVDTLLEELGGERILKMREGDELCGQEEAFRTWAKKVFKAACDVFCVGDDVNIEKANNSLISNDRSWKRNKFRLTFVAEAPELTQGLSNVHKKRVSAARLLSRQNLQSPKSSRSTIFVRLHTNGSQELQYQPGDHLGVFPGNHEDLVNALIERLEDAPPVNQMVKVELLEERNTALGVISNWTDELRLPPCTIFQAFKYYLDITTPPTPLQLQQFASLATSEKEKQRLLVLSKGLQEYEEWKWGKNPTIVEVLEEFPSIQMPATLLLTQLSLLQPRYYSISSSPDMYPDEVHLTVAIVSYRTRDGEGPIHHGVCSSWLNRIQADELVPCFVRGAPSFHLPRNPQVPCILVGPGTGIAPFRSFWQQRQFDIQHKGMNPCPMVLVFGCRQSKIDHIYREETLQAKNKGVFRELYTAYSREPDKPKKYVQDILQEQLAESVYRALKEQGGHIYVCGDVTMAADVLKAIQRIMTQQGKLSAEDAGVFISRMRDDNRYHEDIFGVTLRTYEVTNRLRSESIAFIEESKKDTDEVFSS

In general, pIC50 refers to −log10 of the IC50, conventionally taken in molar units. Take `N=C(N)CCNC(=O)C1CCC(=N)N1` (centres unmarked): the pIC50 is under 4.30 in assay [1] (Table 4, read-out: IC50 ecNOS); over 5.00 in assay [2] (Table 4); at least 5.00 in assay [3] (Table 4, read-out: IC50 iNOS).

On to `CC(=O)NCC1CNC(=N)CC1C` (mixture of isomers) [Table 5: CH, H, CH3, CH2NHAc, H, H, H, cis/trans-5-Acetamidomethyl-2-imino-4-methyl-piperidine, acetic acid salt], for which the pIC50 in assay [1] (Table 5, read-out: IC50 ecNOS) was under 4.30; in assay [2] (Table 5), at least 4.30; in assay [3] (Table 5, read-out: IC50 iNOS), at least 4.30.

Turning to `COC(=O)C1CNC(=N)CC1C` (mixture of isomers) [Table 5: CH, H, CH3, CO2CH3, H, H, H, cis/trans-2-Imino-4-methyl-piperidine-5-carboxylic acid, methyl ester, acetic acid salt], the pIC50 was under 4.30 in assay [1] (Table 5, read-out: IC50 ecNOS); at least 4.30 in assay [2] (Table 5); at least 5.00 in assay [3] (Table 5, read-out: IC50 iNOS).

Turning to `CC1CC(=N)NCC1C(=O)O` (mixture of isomers) [Table 5: CH, H, CH3, CO2H, H, H, H, cis/trans-2-Imino-4-methyl-piperidine-5-carboxylic acid, acetic acid salt], the pIC50 is at least 4.30 in assay [1] (Table 5, read-out: IC50 ecNOS); at least 5.00 in assay [2] (Table 5); at least 5.00 in assay [3] (Table 5, read-out: IC50 iNOS).

As for `CC(=O)NC1CNC(=N)CC1C` (mixture of isomers) [Table 5: CH, H, CH3, NHAc, H, H, H, cis/trans-5-Acetamido-2-imino-4-methyl-piperidine, acetic acid salt], the pIC50 in assay [1] (Table 5, read-out: IC50 ecNOS) was under 4.30; in assay [2] (Table 5), under 4.30; in assay [3] (Table 5, read-out: IC50 iNOS), at least 4.30.

Regarding `CC1CC(=N)NCC1C1CCCCC1` (mixture of isomers) [cis/trans-5-Cyclohexyl-2-imino-4-methyl-piperidine, acetic acid salt], the pIC50 in assay [1] (Table 5, read-out: IC50 ecNOS) is under 4.30; in assay [2] (Table 5) it was under 4.30; in assay [3] (Table 5, read-out: IC50 iNOS), under 4.30.

Consider `NC1=N[C@H]2CCCC[C@H]2CC1` (relative stereo) [Table 5: CH2, H, H, cis-(CH2)4, H, H, cis-Decahydro-2-iminoquinoline hydrochloride], for which the pIC50 in assay [1] (Table 5, read-out: IC50 ecNOS) was at least 4.30; in assay [2] (Table 5) it was at least 6.00; in assay [3] (Table 5, read-out: IC50 iNOS), at least 6.00.

With `CC1CC(N)=NC1C` (single isomer, unassigned) [Table 4: H, CH3, CH3(B), H, H], the pIC50 is at least 6.00 in assay [2] (Table 4) and at least 6.00 in assay [3] (Table 4, read-out: IC50 iNOS).

Turning to `O=C(O)C1CCC(=NC2NCCS2)N1` (centres unmarked) [Table 4: H, H, CO2H, H, 2-thiazolidinyl], in assay [3] (Table 4, read-out: IC50 iNOS), the pIC50 is at least 4.30.

Turning to `C[C@@H]1CCC(=N)NC1` [Table 5: CH2, H, H, (R)CH3, H, H, H, 5(R)-Methyl-2-iminopiperidine hydrochloride], the negative logarithm of the IC50 (pIC50) was at least 5.00 in assay [1] and at least 6.00 in assay [3].

With `C[C@H]1CCC(=N)NC1` [Table 5: CH2, H, H, (S)CH3, H, H, H, 5(S)-Methyl-2-iminopiperidine hydrochloride], the pIC50 in assay [1] and in assay [3] was at least 5.00 throughout.

Turning to `CC1CCC(N)=NC1` (centres unmarked) [Table 5: CH2, H, H, CH3, H, H, H, 2-Imino-5-methylpiperidine hydrochloride], the negative logarithm of the IC50 (pIC50) was at least 5.00 in assay [1] and at least 6.00 in assay [3].

`N=C1CCCCN1` [Table 5: CH2, H, H, H, H, H, H, 2-Iminopiperidine hydrochloride]: the negative logarithm of the IC50 (pIC50) in assay [1] and in assay [3] was at least 6.00 throughout.

`C[C@@H]1CCNC(=N)C1` [Table 5: CH, H, (R)CH3, H, H, H, H, 4(R)-Methyl-2-iminopiperidine hydrochloride]: the pIC50 in assay [3] is at least 6.00.

The molecule `C[C@H]1CCNC(=N)C1` [Table 5: CH, H, (S)CH3, H, H, H, H, 4(S)-Methyl-2-iminopiperidine hydrochloride] showed a pIC50 in assay [3] of at least 6.00.

In the case of `CC1CCN=C(N)C1` (centres unmarked) [Table 5: CH, H, CH3, H, H, H, H, 2-Imino-4-methylpiperidine hydrochloride], the pIC50 in assay [3] was at least 6.00.
